In ChEMBL document CHEMBL4190187, “Discovery of pyrazolopyrimidine derivatives as novel inhibitors of ataxia telangiectasia and rad3 related protein (ATR)” (Bioorg Med Chem Lett, 2017):

Experiments:
[1] = molecular target: Tyrosine-protein kinase ABL1 (Mus musculus) (UniProt P00520); test: Inhibition of recombinant mouse Abl (27 to end residues) at 1 uM using EAIYAAPFAKKK as substrate after 40 mins in presence of [gamma-33P]ATP by scintillation counting method
[2] = molecular target: Calcium/calmodulin-dependent protein kinase type II subunit gamma (Homo sapiens) (UniProt Q13555); test: Inhibition of recombinant human CAMK2gamma (1 to 330 residues) at 1 uM using […] after 40 mins in presence of [gamma-33P]ATP by scintillation counting method
[3] = molecular target: Calcium/calmodulin-dependent protein kinase type 1D (Homo sapiens) (UniProt Q8IU85); test: Inhibition of recombinant full-length human CAMK1delta at 1 uM using […] after 40 mins in presence of [gamma-33P]ATP by scintillation counting method
[4] = molecular target: Cyclin-dependent kinase 5/CDK5 activator 1 (Homo sapiens) (UniProt Q00535+Q15078); test: Inhibition of recombinant full-length human CDK5/P25 at 1 uM using histone H1 as substrate after 40 mins in presence of [gamma-33P]ATP by scintillation counting method; format: protein-complex assay
[5] = molecular target: Casein kinase I isoform gamma-2 (Homo sapiens) (UniProt P78368); test: Inhibition of recombinant human CK1gamma2 (18 to end residues) at 1 uM using KRRRALS(p)VASLPGL s substrate after 40 mins in presence of [gamma-33P]ATP by scintillation counting method
[6] = system: Mast/stem cell growth factor receptor Kit (Homo sapiens), P10721 [D816V]; test: Inhibition of recombinant human cKit D816V mutant (544 to end residues) at 1 uM using poly(Glu,Tyr) 4:1 as substrate after 40 mins in presence of [gamma-33P]ATP by scintillation counting method
[7] = system: Mast/stem cell growth factor receptor Kit (Homo sapiens), P10721 [V654A]; test: Inhibition of recombinant human cKit V654A mutant (544 to end residues) at 1 uM using GGMEDIYFEFMGGKKK as substrate after 40 mins in presence of [gamma-33P]ATP by scintillation counting method
[8] = molecular target: RAF proto-oncogene serine/threonine-protein kinase (Homo sapiens) (UniProt P04049); test: Inhibition of recombinant human c-RAF (306 to end residues) at 1 uM using inactive MEK1 as substrate after 40 mins in presence of [gamma-33P]ATP by scintillation counting method
[9] = molecular target: Proto-oncogene tyrosine-protein kinase Src (Homo sapiens) (UniProt P12931); test: Inhibition of recombinant full-length human cSRC at 1 uM using KVEKIGEGTYGVVYK (Cdc2 peptide) as substrate after 40 mins in presence of [gamma-33P]ATP by scintillation counting method
[10] = molecular target: Dual specificity tyrosine-phosphorylation-regulated kinase 1A (Homo sapiens) (UniProt Q13627); test: Inhibition of recombinant full-length human DYRK1A at 1 uM using RRRFRPASPLRGPPK as substrate after 40 mins in presence of [gamma-33P]ATP by scintillation counting method
[11] = system: Epidermal growth factor receptor (Homo sapiens), P00533 [L858R,T790M]; test: Inhibition of recombinant human EGFR T790M/L858R double mutant (696 to end residues) at 1 uM using GGMEDIYFEFMGGKKK as substrate after 40 mins in presence of [gamma-33P]ATP by scintillation counting method
[12] = molecular target: Ephrin type-A receptor 5 (Homo sapiens) (UniProt P54756); test: Inhibition of recombinant human EPHA5 (655 to 956 residues) at 1 uM using poly(Glu,Tyr) 4:1 as substrate after 40 mins in presence of [gamma-33P]ATP by scintillation counting method
[13] = molecular target: G protein-coupled receptor kinase 6 (Homo sapiens) (UniProt P43250); test: Inhibition of recombinant full-length human GRK6 at 1 uM using casein as substrate after 40 mins in presence of [gamma-33P]ATP by scintillation counting method
[14] = molecular target: Insulin-like growth factor 1 receptor (Homo sapiens) (UniProt P08069); test: Inhibition of recombinant human activated IGF-1R (959 to end residues) at 1 uM using KKKSPGEYVNIEFG as substrate after 40 mins in presence of [gamma-33P]ATP by scintillation counting method
[15] = molecular target: MAP kinase-activated protein kinase 3 (Homo sapiens) (UniProt Q16644); test: Inhibition of recombinant human MAPKAPK3 (2 to end residues) at 1 uM using KKLNRTLSVA as substrate after 40 mins in presence of [gamma-33P]ATP by scintillation counting method
[16] = molecular target: Serine/threonine-protein kinase MARK1 (Homo sapiens) (UniProt Q9P0L2); test: Inhibition of recombinant human MARK1 (2 to end residues) at 1 uM using KKKVSRSGLYRSPSMPENLNRPR as substrate after 40 mins in presence of [gamma-33P]ATP by scintillation counting method
[17] = molecular target: Serine/threonine-protein kinase 26 (Homo sapiens) (UniProt Q9P289); test: Inhibition of recombinant human MST4 (4 to 304 residues) at 1 uM using RLGRDKYKTLRQIRQ as substrate after 40 mins in presence of [gamma-33P]ATP by scintillation counting method
[18] = molecular target: Serine/threonine-protein kinase NLK (Homo sapiens) (UniProt Q9UBE8); test: Inhibition of recombinant human NLK (121 to end residues) at 1 uM using myelin basic protein as substrate after 40 mins in presence of [gamma-33P]ATP by scintillation counting method
[19] = molecular target: Serine/threonine-protein kinase D2 (Homo sapiens) (UniProt Q9BZL6); test: Inhibition of recombinant full-length human PKD2 at 1 uM using KKLNRTLSVA as substrate after 40 mins in presence of [gamma-33P]ATP by scintillation counting method
[20] = molecular target: Receptor-interacting serine/threonine-protein kinase 2 (Homo sapiens) (UniProt O43353); test: Inhibition of recombinant human RIPK2 (1 to 299 residues) at 1 uM using myelin basic protein as substrate after 120 mins in presence of [gamma-33P]ATP by scintillation counting method
[21] = molecular target: Ribosomal protein S6 kinase alpha-3 (Homo sapiens) (UniProt P51812); test: Inhibition of recombinant human Rsk2 (2 to end residues) at 1 uM using KKKNRTLSVA as substrate after 40 mins in presence of [gamma-33P]ATP by scintillation counting method
[22] = molecular target: SRSF protein kinase 1 (Homo sapiens) (UniProt Q96SB4); test: Inhibition of recombinant human SRPK1 (2 to end residues) at 1 uM using RSRSRSRSRSRSRSR as substrate after 40 mins in presence of [gamma-33P]ATP by scintillation counting method
[23] = molecular target: Serine/threonine-protein kinase ULK1 (Homo sapiens) (UniProt O75385); test: Inhibition of recombinant human ULK1 (1 to 314 residues) at 1 uM using casein as substrate after 40 mins in presence of [gamma-33P]ATP by scintillation counting method
Serine/threonine-protein kinase ULK1 (Homo sapiens), sequence (O75385 whole entry, the tested form may be a part): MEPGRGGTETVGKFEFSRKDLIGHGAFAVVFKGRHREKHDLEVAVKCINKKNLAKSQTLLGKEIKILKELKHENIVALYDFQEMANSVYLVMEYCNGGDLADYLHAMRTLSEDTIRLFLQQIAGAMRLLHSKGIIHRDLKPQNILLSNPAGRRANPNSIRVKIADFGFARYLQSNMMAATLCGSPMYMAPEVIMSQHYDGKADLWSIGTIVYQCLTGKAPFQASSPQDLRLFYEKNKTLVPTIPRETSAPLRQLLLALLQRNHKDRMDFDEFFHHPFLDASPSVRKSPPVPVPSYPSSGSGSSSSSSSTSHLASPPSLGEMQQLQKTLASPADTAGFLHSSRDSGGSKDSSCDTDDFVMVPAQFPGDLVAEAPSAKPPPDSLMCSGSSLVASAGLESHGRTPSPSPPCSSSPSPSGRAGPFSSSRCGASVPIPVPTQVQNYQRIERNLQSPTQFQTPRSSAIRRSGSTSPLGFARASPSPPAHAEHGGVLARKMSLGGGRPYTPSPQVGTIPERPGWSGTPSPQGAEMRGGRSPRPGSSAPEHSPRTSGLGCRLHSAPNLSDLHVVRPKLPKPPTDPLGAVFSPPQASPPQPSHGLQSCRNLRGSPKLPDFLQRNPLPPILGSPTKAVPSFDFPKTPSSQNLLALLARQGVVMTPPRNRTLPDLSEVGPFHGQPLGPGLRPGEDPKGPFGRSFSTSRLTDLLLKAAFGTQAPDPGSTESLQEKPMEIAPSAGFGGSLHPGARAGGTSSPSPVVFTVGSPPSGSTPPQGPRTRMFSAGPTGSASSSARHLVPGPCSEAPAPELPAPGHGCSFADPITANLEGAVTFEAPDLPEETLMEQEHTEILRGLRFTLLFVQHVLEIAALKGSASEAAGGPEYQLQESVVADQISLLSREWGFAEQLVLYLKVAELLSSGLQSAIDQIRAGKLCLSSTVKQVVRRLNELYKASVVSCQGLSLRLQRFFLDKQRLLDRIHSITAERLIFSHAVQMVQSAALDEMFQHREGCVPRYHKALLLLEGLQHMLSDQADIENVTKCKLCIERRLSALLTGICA

Casein kinase I isoform gamma-2 (Homo sapiens), sequence (P78368 whole entry, looked up, canonical isoform): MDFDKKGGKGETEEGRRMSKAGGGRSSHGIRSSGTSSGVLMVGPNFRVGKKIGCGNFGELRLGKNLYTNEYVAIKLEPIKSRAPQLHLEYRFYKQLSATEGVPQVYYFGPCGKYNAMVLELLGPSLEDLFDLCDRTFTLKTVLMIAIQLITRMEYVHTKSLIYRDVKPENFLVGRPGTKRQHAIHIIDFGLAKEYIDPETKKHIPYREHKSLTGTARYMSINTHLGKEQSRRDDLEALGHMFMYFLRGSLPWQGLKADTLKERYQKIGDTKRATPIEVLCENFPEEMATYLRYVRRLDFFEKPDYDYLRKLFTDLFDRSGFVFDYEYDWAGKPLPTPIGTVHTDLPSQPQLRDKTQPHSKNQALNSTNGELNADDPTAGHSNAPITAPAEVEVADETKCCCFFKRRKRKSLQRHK
Serine/threonine-protein kinase 26 (Homo sapiens), sequence (Q9P289 2-416 limits assumed): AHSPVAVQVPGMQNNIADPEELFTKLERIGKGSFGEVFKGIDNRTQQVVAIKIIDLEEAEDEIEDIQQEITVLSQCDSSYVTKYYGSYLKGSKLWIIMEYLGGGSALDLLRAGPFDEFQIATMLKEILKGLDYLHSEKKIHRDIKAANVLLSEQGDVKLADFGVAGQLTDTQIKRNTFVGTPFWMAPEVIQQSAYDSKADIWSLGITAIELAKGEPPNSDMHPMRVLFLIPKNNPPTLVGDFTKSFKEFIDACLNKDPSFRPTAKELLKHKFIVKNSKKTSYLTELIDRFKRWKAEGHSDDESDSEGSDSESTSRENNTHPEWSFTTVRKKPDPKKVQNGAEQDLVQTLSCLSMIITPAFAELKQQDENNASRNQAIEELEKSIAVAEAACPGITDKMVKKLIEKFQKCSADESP
Mast/stem cell growth factor receptor Kit (Homo sapiens), P10721 [D816V], sequence (P10721 whole entry D816V): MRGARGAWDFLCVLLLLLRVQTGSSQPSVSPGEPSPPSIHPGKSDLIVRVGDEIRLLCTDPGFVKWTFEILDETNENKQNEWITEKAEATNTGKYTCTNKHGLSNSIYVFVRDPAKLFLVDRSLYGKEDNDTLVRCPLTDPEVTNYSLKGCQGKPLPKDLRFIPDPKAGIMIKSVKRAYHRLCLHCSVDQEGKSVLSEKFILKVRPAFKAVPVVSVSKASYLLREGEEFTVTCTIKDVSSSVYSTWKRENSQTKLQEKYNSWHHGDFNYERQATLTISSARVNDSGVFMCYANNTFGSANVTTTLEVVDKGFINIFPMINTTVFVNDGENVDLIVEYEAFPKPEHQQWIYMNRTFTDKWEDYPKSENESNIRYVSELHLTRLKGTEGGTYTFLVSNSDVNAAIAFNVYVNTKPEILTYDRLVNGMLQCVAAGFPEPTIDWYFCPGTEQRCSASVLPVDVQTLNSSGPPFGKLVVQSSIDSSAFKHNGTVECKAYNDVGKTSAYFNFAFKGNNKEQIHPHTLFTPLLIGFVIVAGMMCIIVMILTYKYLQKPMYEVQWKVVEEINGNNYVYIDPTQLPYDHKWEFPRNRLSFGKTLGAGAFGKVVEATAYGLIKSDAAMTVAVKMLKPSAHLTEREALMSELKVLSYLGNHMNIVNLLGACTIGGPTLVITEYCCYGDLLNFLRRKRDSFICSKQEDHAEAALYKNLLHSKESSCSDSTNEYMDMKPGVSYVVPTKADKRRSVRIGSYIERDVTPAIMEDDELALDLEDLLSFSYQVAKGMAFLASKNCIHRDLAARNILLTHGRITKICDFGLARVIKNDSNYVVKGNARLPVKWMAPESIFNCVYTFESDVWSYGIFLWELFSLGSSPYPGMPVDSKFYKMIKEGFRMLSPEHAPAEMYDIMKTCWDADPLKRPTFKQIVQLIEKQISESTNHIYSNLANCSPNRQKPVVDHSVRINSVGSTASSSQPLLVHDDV
Ephrin type-A receptor 5 (Homo sapiens), sequence (P54756 whole entry, the tested form may be a part): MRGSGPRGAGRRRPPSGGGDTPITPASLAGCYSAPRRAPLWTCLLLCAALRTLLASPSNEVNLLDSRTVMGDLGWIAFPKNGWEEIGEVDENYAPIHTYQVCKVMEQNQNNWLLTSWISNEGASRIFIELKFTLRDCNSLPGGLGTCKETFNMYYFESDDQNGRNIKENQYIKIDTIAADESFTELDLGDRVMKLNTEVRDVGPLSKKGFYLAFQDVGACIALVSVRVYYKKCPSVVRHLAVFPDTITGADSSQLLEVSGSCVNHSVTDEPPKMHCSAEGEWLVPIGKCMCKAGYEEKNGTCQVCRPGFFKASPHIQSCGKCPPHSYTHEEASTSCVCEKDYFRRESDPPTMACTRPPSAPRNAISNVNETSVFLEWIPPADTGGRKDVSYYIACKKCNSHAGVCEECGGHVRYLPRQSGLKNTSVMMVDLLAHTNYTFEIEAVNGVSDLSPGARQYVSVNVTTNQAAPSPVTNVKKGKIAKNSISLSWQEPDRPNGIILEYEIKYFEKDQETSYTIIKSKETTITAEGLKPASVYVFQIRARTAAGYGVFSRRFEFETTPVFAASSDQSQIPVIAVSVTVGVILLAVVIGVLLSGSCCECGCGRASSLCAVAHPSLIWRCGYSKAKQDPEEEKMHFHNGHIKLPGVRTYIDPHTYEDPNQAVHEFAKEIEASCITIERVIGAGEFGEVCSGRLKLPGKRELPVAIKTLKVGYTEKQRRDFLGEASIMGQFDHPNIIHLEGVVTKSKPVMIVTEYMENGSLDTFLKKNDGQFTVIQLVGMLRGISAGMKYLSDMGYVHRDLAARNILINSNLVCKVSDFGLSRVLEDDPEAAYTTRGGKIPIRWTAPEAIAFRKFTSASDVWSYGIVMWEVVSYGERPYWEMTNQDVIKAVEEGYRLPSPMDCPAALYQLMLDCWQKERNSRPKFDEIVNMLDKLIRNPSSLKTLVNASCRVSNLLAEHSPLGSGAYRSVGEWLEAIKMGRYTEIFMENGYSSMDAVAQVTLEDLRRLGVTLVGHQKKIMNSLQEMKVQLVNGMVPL
MAP kinase-activated protein kinase 3 (Homo sapiens), sequence (Q16644 whole entry, looked up): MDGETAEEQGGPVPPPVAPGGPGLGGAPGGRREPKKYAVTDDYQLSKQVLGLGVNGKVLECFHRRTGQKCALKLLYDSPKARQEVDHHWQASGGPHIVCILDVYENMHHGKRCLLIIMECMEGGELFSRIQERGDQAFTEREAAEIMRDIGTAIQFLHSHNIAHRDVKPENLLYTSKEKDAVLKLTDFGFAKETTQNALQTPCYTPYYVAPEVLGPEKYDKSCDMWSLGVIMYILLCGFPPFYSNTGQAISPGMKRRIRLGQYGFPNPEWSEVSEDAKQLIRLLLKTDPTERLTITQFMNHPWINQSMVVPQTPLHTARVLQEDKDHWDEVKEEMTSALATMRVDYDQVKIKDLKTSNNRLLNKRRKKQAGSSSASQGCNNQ
Calcium/calmodulin-dependent protein kinase type 1D (Homo sapiens), sequence (Q8IU85 whole entry, looked up): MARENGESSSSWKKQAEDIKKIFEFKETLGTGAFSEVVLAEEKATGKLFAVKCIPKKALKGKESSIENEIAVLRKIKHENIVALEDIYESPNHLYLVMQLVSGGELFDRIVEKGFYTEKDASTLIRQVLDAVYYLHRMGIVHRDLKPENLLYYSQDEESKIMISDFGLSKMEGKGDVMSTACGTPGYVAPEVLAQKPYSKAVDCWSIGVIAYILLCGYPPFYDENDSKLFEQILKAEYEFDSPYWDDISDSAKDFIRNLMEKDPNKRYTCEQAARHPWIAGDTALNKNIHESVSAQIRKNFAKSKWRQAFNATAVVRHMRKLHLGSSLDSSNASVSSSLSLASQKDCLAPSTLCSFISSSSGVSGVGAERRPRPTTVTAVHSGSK
Mast/stem cell growth factor receptor Kit (Homo sapiens), P10721 [V654A], sequence (P10721 whole entry V654A): as the sequence (P10721 whole entry D816V) above, with V654A, V816D counted along it

With `CS(=O)(=O)c1ccc(-n2nc(-c3cnc4[nH]ccc4c3)c3c(N)ncnc32)cc1` the inhibition [1] was 85%, the inhibition [2] was 6% and the inhibition [3] was -8%. For the same molecule, the inhibition [4] was -1%, the inhibition [5] was 18% and the inhibition [6] was -2%. For the same molecule, the inhibition [7] was 30%, the inhibition [8] was -1% and the inhibition [9] was 53%. It also gave an inhibition [10] of -6%, an inhibition [11] of 27% and an inhibition [12] of 8%. The inhibition [13] was -3%, the inhibition [14] was 11% and the inhibition [15] was -1%. The inhibition [16] was -7%, the inhibition [17] was -3% and the inhibition [18] was 18%. The inhibition [19] was 17%, the inhibition [20] was 70% and the inhibition [21] was -5%. The inhibition [22] was 1% and the inhibition [23] was -1%.
